Measurements published in publication PMC11397024, “Strategic Fluorination to Achieve a Potent, Selective, Metabolically Stable, and Orally Bioavailable Inhibitor of CSNK2” (Molecules, 2024).

How the values were obtained:
Experiment in all cases: NanoBRET K192
Type in all cases: cell-based
Details in all cases: HEK293
AXL = biological target: T1, AXL (Homo sapiens, UniProt P30530)
T1 construct: host or cells: HEK293
Experimental: (§1) The K192 selectivity assay was run according to the Draft Promega technical manual, NanoBRET^TM Target Engagement K192 Kinase Selectivity System. Reagents were supplied by Promega (Promega NP 4101). For the assay, DNA from the prepared kinase vector panel plates A and B were mixed with Fugene in 96-well plates (Corning 3917) and incubated at room temperature for 30 min. The NanoLuc® Low control vector pNL1.1.CMV [Nluc/CMV] Vector (Cat.# N1091) and the transfection control vector NanoLuc®-HIPK2 Fusion Vector (Cat.# NV3221) were used as controls.
(§2) HEK293 cells were grown to 75–95% confluency in DMEM (Gibco 11995-065) supplemented with FBS (Avantor 97068-085) at 37 °C in […]. On the first day of the assay, cells were harvested and resuspended in Opti-MEM (Gibco 11058-021) supplemented with 1% FBS (Avantor 97068-085) at 2.5 × 10^5 cells per mL. A volume of 60 μL of cell suspension was mixed with 10 μL of prepared DNA (10X concentration) and 30 μL of Fugene (30 μL/mL in Opti-MEM) as outlined by Promega and incubated overnight at 37 °C in a 5% CO2 incubator.
(§3) On day two of the assay, 5 μL of 20X K10 tracer was prepared and added at concentrations recommended by Promega. Then, 10 μL of test compounds at 100 μM in Opti-MEM (diluted from a 10 mM solution in DMSO) was added to the test wells while an equivalent volume of Opti-MEM was added to the high-control wells. Plates were kept at 37 °C in a 5% CO2 incubator for two hours. After two hours, plates were allowed to equilibrate to room temperature for 15 min. A solution of 3X Complete Substrate plus Inhibitor Solution was freshly prepared, consisting of a 1:166 dilution of NanoBRET™ Nano-Glo® Substrate plus a 1:500 dilution of Extracellular NanoLuc® Inhibitor in Opti-MEM® medium without serum or phenol red. A 50 μL volume of the 3X Complete Substrate plus Inhibitor Solution was added to each assay well, including control wells. After 2–3 min, the plate was shaken at 300 RPM for 10 s, and the donor emission wavelength (450 nm) and acceptor emission wavelength (610 nm) were measured using the Glomax® Discover System.
(§4) As a quality check, the donor signal-to-background ratio was calculated for each individual kinase by dividing the mean donor signal for each kinase by the mean donor signal for the signal-to-background control wells. Fractional occupancy of the test drug for each kinase was determined using the following formula:Occupancy (%) = [1 − (Sample − Bottom)/(Top − Bottom)] × 100 where

BRAF(V600E) = biological target: T2, BRAF(V600E) (Homo sapiens, UniProt P15056, V600E)
T2 construct: purchased Promega (NanoBRET Target Engagement K192 Kinase Selectivity System)
Experimental: as §1, §2, §3, §4

CAMK2D = biological target: T3, CAMK2D (Homo sapiens, UniProt Q13557)
T3 construct: purchased Promega (NanoBRET Target Engagement K192 Kinase Selectivity System)
Experimental: as §1, §2, §3, §4

CDK1 + B1 = biological target: T4, CDK1 + B1 (Homo sapiens, UniProt P06493)
T4 construct: purchased Promega (NanoBRET Target Engagement K192 Kinase Selectivity System)
Experimental: as §1, §2, §3, §4

CDK6 + D1 = biological target: T5, CDK6 + D1 (Homo sapiens, UniProt Q00534)
T5 construct: purchased Promega (NanoBRET Target Engagement K192 Kinase Selectivity System)
T5 sequence (Q00534 whole entry): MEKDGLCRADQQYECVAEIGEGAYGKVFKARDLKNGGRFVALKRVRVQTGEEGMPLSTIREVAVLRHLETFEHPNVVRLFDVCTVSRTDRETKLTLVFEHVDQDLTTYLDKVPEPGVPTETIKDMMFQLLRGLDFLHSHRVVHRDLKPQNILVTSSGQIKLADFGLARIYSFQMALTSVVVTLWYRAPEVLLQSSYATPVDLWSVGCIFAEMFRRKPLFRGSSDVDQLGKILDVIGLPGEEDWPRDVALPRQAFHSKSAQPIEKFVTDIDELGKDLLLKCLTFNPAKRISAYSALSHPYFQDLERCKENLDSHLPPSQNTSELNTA
T5 sequence (P24385 whole entry partner): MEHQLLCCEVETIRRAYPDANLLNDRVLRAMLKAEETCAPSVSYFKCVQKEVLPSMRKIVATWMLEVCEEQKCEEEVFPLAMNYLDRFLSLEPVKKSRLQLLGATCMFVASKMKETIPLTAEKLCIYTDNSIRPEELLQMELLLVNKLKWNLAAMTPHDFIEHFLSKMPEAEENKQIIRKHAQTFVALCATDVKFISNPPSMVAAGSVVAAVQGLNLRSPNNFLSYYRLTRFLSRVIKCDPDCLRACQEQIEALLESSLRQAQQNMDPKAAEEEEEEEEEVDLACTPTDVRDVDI
Experimental: as §1, §2, §3, §4

EPHA6 = biological target: T6, EPHA6 (Homo sapiens, UniProt Q9UF33)
T6 construct: purchased Promega (NanoBRET Target Engagement K192 Kinase Selectivity System)
Experimental: as §1, §2, §3, §4

EPHA7 = biological target: T7, EPHA7 (Homo sapiens, UniProt Q15375)
T7 construct: host or cells: HEK293
Experimental: as §1, §2, §3, §4

HIPK4 = biological target: T8, HIPK4 (Homo sapiens, UniProt Q8NE63)
T8 construct: purchased Promega (NanoBRET Target Engagement K192 Kinase Selectivity System)
Experimental: as §1, §2, §3, §4

IRAK3 = biological target: T9, IRAK3 (Homo sapiens, UniProt Q9Y616)
T9 construct: purchased Promega (NanoBRET Target Engagement K192 Kinase Selectivity System)
Experimental: as §1, §2, §3, §4

MAP3K21 = biological target: T10, MAP3K21 (Homo sapiens, UniProt Q5TCX8)
T10 construct: purchased Promega (NanoBRET Target Engagement K192 Kinase Selectivity System)
Experimental: as §1, §2, §3, §4

MAPK14 = biological target: T11, MAPK14 (Homo sapiens, UniProt Q16539)
T11 construct: purchased Promega (NanoBRET Target Engagement K192 Kinase Selectivity System)
T11 sequence (Q16539 whole entry): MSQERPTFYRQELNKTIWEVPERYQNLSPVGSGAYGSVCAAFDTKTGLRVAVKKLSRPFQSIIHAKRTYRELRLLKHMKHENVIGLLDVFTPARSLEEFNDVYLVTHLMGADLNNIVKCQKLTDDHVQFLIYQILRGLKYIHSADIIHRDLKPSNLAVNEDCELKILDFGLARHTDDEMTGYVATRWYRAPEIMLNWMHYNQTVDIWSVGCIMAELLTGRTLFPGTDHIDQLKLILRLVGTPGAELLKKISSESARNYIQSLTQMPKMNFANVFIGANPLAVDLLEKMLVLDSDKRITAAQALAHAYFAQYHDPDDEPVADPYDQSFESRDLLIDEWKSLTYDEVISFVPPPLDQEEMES
Experimental: as §1, §2, §3, §4

MAPK6 = biological target: T12, MAPK6 (Homo sapiens, UniProt Q16659)
T12 construct: purchased Promega (NanoBRET Target Engagement K192 Kinase Selectivity System)
Experimental: as §1, §2, §3, §4

MARK2 = biological target: T13, MARK2 (Homo sapiens, UniProt Q7KZI7)
T13 construct: purchased Promega (NanoBRET Target Engagement K192 Kinase Selectivity System)
Experimental: as §1, §2, §3, §4

MAST3 = biological target: T14, MAST3 (Homo sapiens, UniProt O60307)
T14 construct: purchased Promega (NanoBRET Target Engagement K192 Kinase Selectivity System)
T14 sequence (O60307 whole entry): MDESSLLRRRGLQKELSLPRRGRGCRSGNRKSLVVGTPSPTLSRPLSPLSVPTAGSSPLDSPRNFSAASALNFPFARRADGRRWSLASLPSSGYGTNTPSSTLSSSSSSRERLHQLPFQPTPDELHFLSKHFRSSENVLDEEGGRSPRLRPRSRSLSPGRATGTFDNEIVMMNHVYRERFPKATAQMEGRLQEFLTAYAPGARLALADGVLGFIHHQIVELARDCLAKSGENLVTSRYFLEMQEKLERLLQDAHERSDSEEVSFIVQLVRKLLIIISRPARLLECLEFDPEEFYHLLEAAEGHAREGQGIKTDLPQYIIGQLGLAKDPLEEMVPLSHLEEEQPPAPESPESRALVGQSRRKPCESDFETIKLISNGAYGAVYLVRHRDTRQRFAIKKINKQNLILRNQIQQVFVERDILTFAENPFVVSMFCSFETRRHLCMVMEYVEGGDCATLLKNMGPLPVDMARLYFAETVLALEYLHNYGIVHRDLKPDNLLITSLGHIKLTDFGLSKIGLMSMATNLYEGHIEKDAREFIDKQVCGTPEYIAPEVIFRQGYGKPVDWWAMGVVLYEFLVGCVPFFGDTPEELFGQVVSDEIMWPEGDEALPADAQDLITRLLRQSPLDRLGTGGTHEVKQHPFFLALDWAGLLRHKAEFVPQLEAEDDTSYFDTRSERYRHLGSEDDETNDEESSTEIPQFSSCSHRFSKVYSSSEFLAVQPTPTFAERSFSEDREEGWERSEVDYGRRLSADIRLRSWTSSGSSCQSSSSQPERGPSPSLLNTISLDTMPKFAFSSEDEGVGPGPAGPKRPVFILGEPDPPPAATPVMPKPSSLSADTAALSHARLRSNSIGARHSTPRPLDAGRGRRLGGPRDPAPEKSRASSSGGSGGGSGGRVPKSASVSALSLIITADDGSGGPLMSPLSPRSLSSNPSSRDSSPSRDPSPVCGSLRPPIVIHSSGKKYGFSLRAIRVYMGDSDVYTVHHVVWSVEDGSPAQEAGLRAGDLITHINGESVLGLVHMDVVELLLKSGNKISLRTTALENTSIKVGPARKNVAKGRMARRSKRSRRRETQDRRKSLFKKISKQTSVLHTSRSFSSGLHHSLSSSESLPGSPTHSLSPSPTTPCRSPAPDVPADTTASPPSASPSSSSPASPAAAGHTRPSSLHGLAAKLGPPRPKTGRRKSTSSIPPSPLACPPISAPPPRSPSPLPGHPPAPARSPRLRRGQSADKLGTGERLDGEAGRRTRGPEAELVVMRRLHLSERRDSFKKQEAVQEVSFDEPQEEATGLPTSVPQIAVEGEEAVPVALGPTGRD
Experimental: as §1, §2, §3, §4

MELK = biological target: T15, MELK (Homo sapiens, UniProt Q14680)
T15 construct: purchased Promega (NanoBRET Target Engagement K192 Kinase Selectivity System)
Experimental: as §1, §2, §3, §4

MUSK = biological target: T16, MUSK (Homo sapiens, UniProt O15146)
T16 construct: purchased Promega (NanoBRET Target Engagement K192 Kinase Selectivity System)
T16 sequence (O15146 24-869): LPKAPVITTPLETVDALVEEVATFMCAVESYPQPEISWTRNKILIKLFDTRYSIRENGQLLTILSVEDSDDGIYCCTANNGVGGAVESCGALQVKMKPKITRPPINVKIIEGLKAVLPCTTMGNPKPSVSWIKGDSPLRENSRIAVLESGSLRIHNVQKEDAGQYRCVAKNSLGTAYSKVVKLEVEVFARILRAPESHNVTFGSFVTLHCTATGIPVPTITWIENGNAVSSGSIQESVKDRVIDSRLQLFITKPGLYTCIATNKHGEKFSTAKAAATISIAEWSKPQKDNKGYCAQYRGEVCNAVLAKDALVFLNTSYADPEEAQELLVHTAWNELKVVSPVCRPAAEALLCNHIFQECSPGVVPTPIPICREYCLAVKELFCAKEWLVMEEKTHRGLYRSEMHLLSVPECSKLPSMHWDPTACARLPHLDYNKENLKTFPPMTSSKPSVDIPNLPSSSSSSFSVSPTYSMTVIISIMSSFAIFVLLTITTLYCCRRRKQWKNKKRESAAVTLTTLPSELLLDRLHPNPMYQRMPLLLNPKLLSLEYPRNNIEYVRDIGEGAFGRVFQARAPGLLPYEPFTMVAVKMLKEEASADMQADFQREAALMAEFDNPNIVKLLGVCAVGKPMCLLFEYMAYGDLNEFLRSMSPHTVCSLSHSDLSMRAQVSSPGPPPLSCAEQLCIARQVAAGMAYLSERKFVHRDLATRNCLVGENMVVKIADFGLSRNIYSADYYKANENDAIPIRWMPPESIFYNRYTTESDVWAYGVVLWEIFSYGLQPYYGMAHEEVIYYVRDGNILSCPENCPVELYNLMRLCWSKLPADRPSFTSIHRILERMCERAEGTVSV
Experimental: as §1, §2, §3, §4

NEK11 = biological target: T17, NEK11 (Homo sapiens, UniProt Q8NG66)
T17 construct: purchased Promega (NanoBRET Target Engagement K192 Kinase Selectivity System)
Experimental: as §1, §2, §3, §4

PAK4 = biological target: T18, PAK4 (Homo sapiens, UniProt O96013)
T18 construct: purchased Promega (NanoBRET Target Engagement K192 Kinase Selectivity System)
Experimental: as §1, §2, §3, §4

PHKG2 = biological target: T19, PHKG2 (Homo sapiens, UniProt P15735)
T19 construct: purchased Promega (NanoBRET Target Engagement K192 Kinase Selectivity System)
T19 sequence (P15735 whole entry): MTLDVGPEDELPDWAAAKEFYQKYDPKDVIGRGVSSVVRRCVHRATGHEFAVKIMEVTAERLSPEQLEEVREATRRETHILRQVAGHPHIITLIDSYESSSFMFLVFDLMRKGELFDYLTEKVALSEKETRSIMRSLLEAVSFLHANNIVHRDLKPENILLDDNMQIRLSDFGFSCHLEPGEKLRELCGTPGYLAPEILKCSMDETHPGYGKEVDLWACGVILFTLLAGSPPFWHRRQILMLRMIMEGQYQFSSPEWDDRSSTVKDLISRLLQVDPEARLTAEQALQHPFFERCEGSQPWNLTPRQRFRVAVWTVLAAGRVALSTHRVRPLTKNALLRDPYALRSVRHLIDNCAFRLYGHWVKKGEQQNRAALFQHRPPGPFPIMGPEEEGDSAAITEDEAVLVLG
Experimental: as §1, §2, §3, §4

PKMYT1 = biological target: T20, PKMYT1 (Homo sapiens, UniProt Q99640)
T20 construct: purchased Promega (NanoBRET Target Engagement K192 Kinase Selectivity System)
Experimental: as §1, §2, §3, §4

PLK4 = biological target: T21, PLK4 (Homo sapiens, UniProt O00444)
T21 construct: purchased Promega (NanoBRET Target Engagement K192 Kinase Selectivity System)
Experimental: as §1, §2, §3, §4

PTK2 = biological target: T22, PTK2 (Homo sapiens, UniProt Q05397)
T22 construct: purchased Promega (NanoBRET Target Engagement K192 Kinase Selectivity System)
Experimental: as §1, §2, §3, §4

RPS6KA3 = biological target: T23, RPS6KA3 (Homo sapiens, UniProt P51812)
T23 construct: purchased Promega (NanoBRET Target Engagement K192 Kinase Selectivity System)
T23 sequence (P51812 whole entry): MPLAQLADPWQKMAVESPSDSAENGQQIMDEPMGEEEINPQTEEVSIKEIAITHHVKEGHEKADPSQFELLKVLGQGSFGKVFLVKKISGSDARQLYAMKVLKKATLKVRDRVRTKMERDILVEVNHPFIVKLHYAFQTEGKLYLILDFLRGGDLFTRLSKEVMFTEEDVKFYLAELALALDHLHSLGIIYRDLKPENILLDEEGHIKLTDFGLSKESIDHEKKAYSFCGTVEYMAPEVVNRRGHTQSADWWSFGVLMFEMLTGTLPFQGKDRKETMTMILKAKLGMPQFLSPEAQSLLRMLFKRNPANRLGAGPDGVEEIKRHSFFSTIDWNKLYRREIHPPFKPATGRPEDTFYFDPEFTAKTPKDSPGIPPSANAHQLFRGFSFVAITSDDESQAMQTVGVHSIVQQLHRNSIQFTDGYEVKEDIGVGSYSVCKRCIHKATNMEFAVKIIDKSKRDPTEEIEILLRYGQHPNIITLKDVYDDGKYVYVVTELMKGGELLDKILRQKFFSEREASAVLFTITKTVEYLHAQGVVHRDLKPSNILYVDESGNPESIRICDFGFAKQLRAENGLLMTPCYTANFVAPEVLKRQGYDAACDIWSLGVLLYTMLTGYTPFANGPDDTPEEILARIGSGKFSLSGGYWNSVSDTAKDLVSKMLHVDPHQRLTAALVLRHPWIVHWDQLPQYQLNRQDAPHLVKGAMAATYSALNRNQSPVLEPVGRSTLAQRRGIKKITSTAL
Experimental: as §1, §2, §3, §4

SLK = biological target: T24, SLK (Homo sapiens, UniProt Q9H2G2)
T24 construct: purchased Promega (NanoBRET Target Engagement K192 Kinase Selectivity System)
Experimental: as §1, §2, §3, §4

STK16 = biological target: T25, STK16 (Homo sapiens, UniProt O75716)
T25 construct: purchased Promega (NanoBRET Target Engagement K192 Kinase Selectivity System)
Experimental: as §1, §2, §3, §4

STK17B = biological target: T26, STK17B (Homo sapiens, UniProt O94768)
T26 construct: purchased Promega (NanoBRET Target Engagement K192 Kinase Selectivity System)
Experimental: as §1, §2, §3, §4

TBK1 = biological target: T27, TBK1 (Homo sapiens, UniProt Q9UHD2)
T27 construct: purchased Promega (NanoBRET Target Engagement K192 Kinase Selectivity System)
T27 sequence (Q9UHD2 whole entry): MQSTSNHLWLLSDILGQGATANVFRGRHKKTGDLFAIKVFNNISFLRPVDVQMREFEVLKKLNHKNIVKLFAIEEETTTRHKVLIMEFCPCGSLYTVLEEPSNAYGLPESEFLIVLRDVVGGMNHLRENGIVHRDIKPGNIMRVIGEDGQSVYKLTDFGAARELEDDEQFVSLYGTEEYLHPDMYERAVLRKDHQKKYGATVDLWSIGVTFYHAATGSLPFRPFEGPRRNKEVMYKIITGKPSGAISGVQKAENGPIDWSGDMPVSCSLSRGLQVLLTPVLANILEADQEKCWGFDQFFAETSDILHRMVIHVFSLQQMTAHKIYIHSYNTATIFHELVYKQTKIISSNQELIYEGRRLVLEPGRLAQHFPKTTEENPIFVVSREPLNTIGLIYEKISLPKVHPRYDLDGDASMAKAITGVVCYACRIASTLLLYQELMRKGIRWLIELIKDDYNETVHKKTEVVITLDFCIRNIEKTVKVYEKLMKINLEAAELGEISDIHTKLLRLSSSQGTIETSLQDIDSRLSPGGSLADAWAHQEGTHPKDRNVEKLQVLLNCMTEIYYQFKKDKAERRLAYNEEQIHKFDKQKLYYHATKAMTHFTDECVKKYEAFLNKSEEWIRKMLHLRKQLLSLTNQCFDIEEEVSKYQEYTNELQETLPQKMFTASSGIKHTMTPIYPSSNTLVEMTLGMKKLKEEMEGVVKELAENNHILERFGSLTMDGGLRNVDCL
Experimental: as §1, §2, §3, §4

WEE1 = biological target: T28, WEE1 (Homo sapiens, UniProt P30291)
T28 construct: purchased Promega (NanoBRET Target Engagement K192 Kinase Selectivity System)
Experimental: as §1, §2, §3, §4

`CCC(=O)Nc1cc(Nc2cc(NC3CC3)n3ncc(C#N)c3n2)c(F)cc1N1CCC[C@H](NC)C1` [Compound 2, (S)-N-(5-((3-cyano-7-(cyclopropylamino)pyrazolo[1,5-a]pyrimidin-5-yl)amino)-4-fluoro-2-(3-(methylamino)piperidin-1-yl)phenyl)propionamide] showed a receptor occupancy at 10 µM (AXL) of -9.2%, a receptor occupancy at 10 µM (BRAF(V600E)) of 5.3% and a receptor occupancy at 10 µM (CAMK2D) of 18.4%. It also gave a receptor occupancy at 10 µM (CDK1 + B1) of 6.2%, a receptor occupancy at 10 µM (CDK6 + D1) of 11.9% and a receptor occupancy at 10 µM (EPHA6) of 7.3%. It also gave a receptor occupancy at 10 µM (EPHA7) of -2.5%, a receptor occupancy at 10 µM (HIPK4) of 39.9% and a receptor occupancy at 10 µM (IRAK3) of 2.4%. It also gave a receptor occupancy at 10 µM (MAP3K21) of 4.8%, a receptor occupancy at 10 µM (MAPK14) of 10.4% and a receptor occupancy at 10 µM (MAPK6) of 14.6%. The receptor occupancy at 10 µM (MARK2) was 14.2%, the receptor occupancy at 10 µM (MAST3) was -0.9% and the receptor occupancy at 10 µM (MELK) was 24.5%. It also gave a receptor occupancy at 10 µM (MUSK) of -0.5%, a receptor occupancy at 10 µM (NEK11) of 19.1% and a receptor occupancy at 10 µM (PAK4) of 4.5%. It also gave a receptor occupancy at 10 µM (PHKG2) of 29.7%, a receptor occupancy at 10 µM (PKMYT1) of 5.5% and a receptor occupancy at 10 µM (PLK4) of 3.8%. It also gave a receptor occupancy at 10 µM (PTK2) of 15.7%, a receptor occupancy at 10 µM (RPS6KA3) of 1.8% and a receptor occupancy at 10 µM (SLK) of 6.6%. The receptor occupancy at 10 µM (STK16) was 16.4%, the receptor occupancy at 10 µM (STK17B) was 45.5% and the receptor occupancy at 10 µM (TBK1) was 18.5%. For the same molecule, the receptor occupancy at 10 µM (WEE1) was 17.8%.
